Results as given in patent EP4772510A2, “BENZAZEPINONE COMPOUND AND USE THEREOF” (HANGZHOU BIO-SINCERITY PHARMA-TECHCO., LTD., priority 2023, dated 2025).

Legend:
[1] = tested on: HT-29 cells; assay: Inhibition of TNF-α-induced necroptosis of HT-29 cells (SRB method); assay type: cell-based, human; conditions: Homo sapiens, HT-29, TNF-α 20 ng/mL + BV6 2 µM + Z-VAD-FMK 20 µM, 18 h
Description: Example 57: Inhibition of TNF-α-Induced Necroptosis of HT-29 Cells by Compounds
• 1. Experimental reagents: McCOY's 5A culture medium, fetal bovine serum, penicillin-streptomycin, trypsin, PBS, TNF-α (MCE, HY-P7058), BV6 (MCE, HY-16701), Z-VAD-FMK (MCE, HY-16658B), SRB kit (Shanghai BestBio Biotechnology Co., Ltd., BB-4208-500T). • 2. Experimental instruments: medical low-temperature freezer (Thermo Fisher scientific, 902-ULTS), electrically heated thermostatic water bath (Shanghai Bluepard Instruments Co., Ltd., CD-420), low-speed centrifuge (ANHUI USTC Zonkia Scientific Instruments Co., Ltd, SC-3616), carbon dioxide incubator (Shanghai Bluepard Instruments Co., Ltd., BPN-150CH(UV)), inverted microscope (Olympus, CKX53), multi-functional microplate reader (Thermo Tecan, SPARK), class-II biosafety cabinet (AIRTECH, BSC-1304IIA2), and desktop cell counter (Thermo Fisher Scientific, Countess II). • 3. Cell culturing: HT-29 cells (human colon cancer cells) were cultured in a McCOY's 5A culture solution containing 10% fetal bovine serum and 1% penicillin-streptomycin solution in a 5% CO 2 at 37 °C and a saturated humidity, and culture medium changes and cell passaging were performed 3-4 times a week. • 4. […] The culture medium, trypsin, etc., were taken out from the freezer and transferred to the water bath for pre-heating. An appropriate amount of these substances was then taken for use. • (2) The old culture medium in the flask was aspirated using a sterile pipette and discarded, and the cells were washed 3 times with PBS. 1 mL of trypsin (25 cm^2 cell culture flask) was added into the flask, and the flask was gently shaken to allow the trypsin to cover all the cell surfaces. Digestion was performed in an incubator at 37 °C. After 2 min of digestion, the flask was placed under a microscope for observation. […] The mixture was gently pipetted using a pipette to homogenize the cells and thus prepare a single-cell suspension, and the cells were counted. • (5) The cells were diluted to 3 × 10^5/mL and seeded into a 96-well plate at 100 µL/well, such that there were 3 × 10^4 cells per well in the 96-well plate. The cells were incubated in a 5% CO2 incubator at 37 °C and a saturated humidity for 24 h, followed by the addition of compounds. • 4.2 Dilution and addition of compounds: • (1) TNF-α was dissolved in PBS to obtain a 100 µg/mL stock solution and aliquoted; Z-VAD-FMK was dissolved in DMSO to obtain a 10 mM stock solution and aliquoted; BV6 was dissolved in DMSO to obtain a 10 mM stock solution and aliquoted; GSK2982772 was dissolved in DMSO to obtain a 10 mM stock solution and aliquoted. One aliquot of each stock solution was stored at -20 °C for immediate use, while the remaining aliquots were stored at - 80 °C and used within their shelf life. • (2) McCOY's 5A culture solution containing TNF-α, BV6, and Z-VAD-FMK was prepared. For the positive control group and the test compound groups, the McCOY's 5A culture solution was added at 90 µL/well, and 10 µL of the culture medium containing the test compound was also added, thus making the final concentrations of TNF-α, BV6, and Z-VAD-FMK be 20 ng/mL, 2 µM, and 20 µM, respectively. For the DMSO (5‰) control group, 90 µL of the McCOY's 5A complete culture solution was added, and then 10 µL of DMSO was added, thus making the final concentration 5‰. • (3) Each target compound was three-fold diluted with a culture medium to 8 concentration gradients, with each concentration set in duplicate (10 µL/well). The final concentrations of each target compound were 1000.00/333.33/111.11/37.04/12.35/4.12/1.37/0.46 nM. • (4) The 96-well plate cultured for 24 h was taken out from the incubator, and the culture medium in the 96-well plate was carefully aspirated and discarded. A positive control group, test compound groups, and a DMSO (5‰) control group were set, and 10 µL of the corresponding compound was added to each group. […]

[2] = tested on: U937 cells; assay: Inhibition of TNF-α-induced necroptosis of U937 cells (CCK-8 assay); assay type: cell-based, human; conditions: Homo sapiens, U-937, TNF-α 20 ng/mL + BV6 2 µM + Z-VAD-FMK 20 µM, 18 h
Description: Example 56: Inhibition of TNF-α-Induced Necroptosis of U937 Cells by Compounds
• 1. Experimental reagents: RPMI-1640 culture medium, fetal bovine serum, penicillin-streptomycin, TNF-α (MCE, HY-P7058), BV6 (MCE, HY-16701), Z-VAD-FMK (MCE, HY-16658B), and CCK-8 (Dalian Meilun Biotech Co., Ltd., MA0218). • 2. Experimental instruments: medical low-temperature freezer (Thermo Fisher scientific, 902-ULTS), electrically heated thermostatic water bath (Shanghai Bluepard Instruments Co., Ltd., CD-420), low-speed centrifuge (ANHUI USTC Zonkia Scientific Instruments Co., Ltd, SC-3616), carbon dioxide incubator (Shanghai Bluepard Instruments Co., Ltd., BPN-150CH(UV)), inverted microscope (Olympus, CKX53), multi-functional microplate reader (Thermo Tecan, SPARK), class-II biosafety cabinet (AIRTECH, BSC-1304IIA2), and desktop cell counter (Thermo Fisher Scientific, Countess II). • 3. Cell culturing: U937 cells (human histiocytic lymphoma cells) were cultured in an RPMI-1640 culture solution containing 10% fetal bovine serum and 1% penicillin-streptomycin solution in a 5% CO2 incubator at 37 °C and a saturated humidity. The cell culture flask was vertically placed in the incubator. A T25 culture flask was used as an example, the culture solution in the flask was 6-8 mL, and culture medium changes and cell passaging were performed 3-4 times a week. • 4. […] The culture medium was taken out from the freezer and transferred to the water bath for pre-heating. An appropriate amount of culture medium was then taken for use. • (2) The cell suspension was transferred to a 15 mL sterile centrifuge tube and centrifuged at 850 rpm for 4 min to collect U937 cells. • (3) The supernatant was carefully discarded, and an appropriate amount of culture medium was added. The mixture was gently pipetted using a pipette to homogenize the cells and thus prepare a single-cell suspension, and the cells were counted. • (4) The cells were diluted to 4 × 10^5/mL and seeded into a 96-well plate at 90 µL/well, such that the cell density in the 96-well plate was 3.6 × 10 ^4 cells/well. The cells were incubated in a 5% CO 2 incubator at 37 °C and a saturated humidity for 6 h, followed by the addition of compounds. • 4.2 Dilution and addition of compounds: • (1) TNF-α was dissolved in PBS to obtain a 100 µg/mL stock solution and aliquoted; Z-VAD-FMK was dissolved in DMSO to obtain a 10 mM stock solution and aliquoted; BV6 was dissolved in DMSO to obtain a 10 mM stock solution and aliquoted; GSK2982772 was dissolved in DMSO to obtain a 10 mM stock solution and aliquoted. One aliquot of each stock solution was stored at -20 °C for immediate use, while the remaining aliquots were stored at - 80 °C and used within their shelf life. • (2) RPMI-1640 culture medium containing TNF-α, BV6, and Z-VAD-FMK was prepared (5 µL/per well), such that the final concentrations of TNF-α, BV6, and Z-VAD-FMK were 20 ng/mL, 2 µM, and 20 µM, respectively. • (3) Each target compound was three-fold diluted with a culture medium to 8 concentration gradients, with each concentration set in duplicate (5 µL/well). The final concentrations of each target compound were 1000.00/333.33/111.11/37.04/12.35/4.12/1.37/0.46 nM. • (4) The 96-well plate containing 90 µL of cell suspension was taken out from an incubator, and a positive control group, test compound groups, and a DMSO (5‰) control group were set. 5 µL of RPMI-1640 culture solution containing TNF-α, BV6, and Z-VAD-FMK and 5 µL of culture solution containing the test compound were added to the positive control group and the test compound groups. After compound addition, the mixtures were cultured for 18 h, followed by the CCK-8 assay. • (5) The 96-well plate was taken out, and the CCK-8 reagent was carefully added at 10 µL/well. The mixtures were incubated at 37 °C for 2-4 h, and the absorbance value was measured at a wavelength of 450 nm. • 5. Evaluation of inhibitory activity of compounds on TNF-α-induced necroptosis of U937 [formula] […]

Compound	EC50 [1]	EC50 [2]
O=C(NC1CCc2cc(C#Cc3ccncc3)cc3c2N(CC3)C1=O)c1nnc(Cc2c(Cl)cccc2Cl)[nH]1 (stereo not drawn) [Compound I-13, 5-(2,6-dichlorobenzyl)-N-(4-oxo-9-(pyridin-4-ylethynyl)-1,2,3,4,6,7-hexahydroazepino[3,2,1-hi]indol-3-yl)-4H-1,2,4-triazole-3-carboxamide]	> 200 nM	> 200 nM
Cn1cc(C#Cc2cc3c4c(c2)CCN4C(=O)C(NC(=O)c2cccc(Oc4ccccc4)n2)CC3)cn1 (stereo not drawn) [Compound V-1, N-(9-((1-methyl-1H-pyrazol-4-yl)ethynyl)-4-oxo-1,2,3,4,6,7-hexahydroazepino[3,2,1-hi]indol-3-yl)-6-phenoxypicolinamide]	> 200 nM	> 200 nM
Cn1cc(C#Cc2cc3c4c(c2)CCN4C(=O)C(NC(=O)c2ccc(Oc4ccccc4)cn2)CC3)cn1 (stereo not drawn) [Compound V-2, N-(9-((1-methyl-1H-pyrazol-4-yl)ethynyl)-4-oxo-1,2,3,4,6,7-hexahydroazepino[3,2,1-hi]indol-3-yl)-5-phenoxypicolinamide]	> 200 nM	> 200 nM
O=C(NC1CCc2ccc(C#Cc3ccccn3)c3c2N(CC3)C1=O)c1nnc(Cc2ccccc2)[nH]1 (stereo not drawn) [II-1, 5-benzyl-N-(4-oxo-8-(pyridin-2-ylethynyl)-1,2,3,4,6,7-hexahydroazepino[3,2,1-hi]indol-3-yl)-4H-1,2,4-triazole-3-carboxamide]	10 to 100 nM	10 to 100 nM
O=C(NC1CCc2ccc(C#Cc3cccnc3)c3c2N(CC3)C1=O)c1nnc(Cc2ccccc2)[nH]1 (stereo not drawn) [II-2, 5-benzyl-N-(4-oxo-8-(pyridin-3-ylethynyl)-1,2,3,4,6,7-hexahydroazepino[3,2,1-hi]indol-3-yl)-4H-1,2,4-triazole-3-carboxamide]	10 to 100 nM	100 to 200 nM
O=C(NC1CCc2ccc(C#CC3CC3)c3c2N(CC3)C1=O)c1nnc(Cc2ccccc2)[nH]1 (stereo not drawn) [II-3, 5-benzyl-N-(8-(cyclopropylethynyl)-4-oxo-1,2,3,4,6,7-hexahydroazepino[3,2,1-hi]indol-3-yl)-4H-1,2,4-triazole-3-carboxamide]	100 to 200 nM	> 200 nM
O=C(NC1CCc2ccc(C#Cc3ccncc3)c3c2N(CC3)C1=O)c1nnc(Cc2ccccc2)[nH]1 (stereo not drawn) [II-4, 5-benzyl-N-(4-oxo-8-(pyridin-4-ylethynyl)-1,2,3,4,6,7-hexahydroazepino[3,2,1-hi]indol-3-yl)-4H-1,2,4-triazole-3-carboxamide]	100 to 200 nM	10 to 100 nM
O=C(NC1CCc2cc(C#Cc3ccncc3)cc3c2N(CC3)C1=O)c1ncn(Cc2c(F)cccc2F)n1 (stereo not drawn) [III-2, 1-(2,6-difluorobenzyl)-N-(4-oxo-9-(pyridin-4-ylethynyl)-1,2,3,4,6,7-hexahydroazepino[3,2,1-hi]indol-3-yl)-1H-1,2,4-triazole-3-carboxamide]	10 to 100 nM	< 5 nM
O=C(NC1CCc2cc(C#Cc3ccncc3)cc3c2N(CC3)C1=O)c1ncn(Cc2ccccc2)n1 (stereo not drawn) [III-3, 1-benzyl-N-(4-oxo-9-(pyridin-4-ylethynyl)-1,2,3,4,6,7-hexahydroazepino[3,2,1-hi]indol-3-yl)-1H-1,2,4-triazole-3-carboxamide]	10 to 100 nM	10 to 100 nM
CC(C)(O)C#Cc1cc2c3c(c1)CCN3C(=O)C(NC(=O)c1ncn(Cc3c(F)cccc3F)n1)CC2 (stereo not drawn) [III-4, 1-(2,6-difluorobenzyl)-N-(9-(3-hydroxy-3-methylbut-1-yn-1-yl)-4-oxo-1,2,3,4,6,7-hexahydroazepino[3,2,1-hi]indol-3-yl)-1H-1,2,4-triazole-3-carboxamide]	< 5 nM	< 5 nM
COCC#Cc1cc2c3c(c1)CCN3C(=O)C(NC(=O)c1ncn(Cc3c(F)cccc3F)n1)CC2 (stereo not drawn) [III-5, 1-(2,6-difluorobenzyl)-N-(9-(3-methoxyprop-1-yn-1-yl)-4-oxo-1,2,3,4,6,7-hexahydroazepino[3,2,1-hi]indol-3-yl)-1H-1,2,4-triazole-3-carboxamide]	< 5 nM	< 5 nM
O=C(NC1CCc2cc(C#CC3CC3)cc3c2N(CC3)C1=O)c1ncn(Cc2c(F)cccc2F)n1 (stereo not drawn) [III-6, N-(9-(cyclopropylethynyl)-4-oxo-1,2,3,4,6,7-hexahydroazepino[3,2,1-hi]indol-3-yl)-1-(2,6-difluorobenzyl)-1H-1,2,4-triazole-3-carboxamide]	5 to 10 nM	10 to 100 nM
